According to paper PMC12136031 (Science Advances, 2025):
Read-outs that look alike come from different tables or passages of the source.

What was measured:
NET = target: T1, NET (Homo sapiens, UniProt P23975); assay: Safety47 Transporter NET; assay type: cell-based; settings: Blocker; for Emax: read-out: Max Response; for IC50: read-out: RC50 (IC50)
T1 construct: purchased Eurofins Panlab Safety47 Safety Scan

VEGFR2 = target: T2, VEGFR2 (Homo sapiens, UniProt P35968); assay: Safety47 Kinase Binding VEGFR2; settings: Kinases, Inhibitor; for Emax: read-out: Max Response; for IC50: read-out: RC50 (IC50)
T2 construct: purchased Eurofins Panlab (Safety47 Safety Scan, contract panel)
T2 sequence (P35968 20-1356, species assumed): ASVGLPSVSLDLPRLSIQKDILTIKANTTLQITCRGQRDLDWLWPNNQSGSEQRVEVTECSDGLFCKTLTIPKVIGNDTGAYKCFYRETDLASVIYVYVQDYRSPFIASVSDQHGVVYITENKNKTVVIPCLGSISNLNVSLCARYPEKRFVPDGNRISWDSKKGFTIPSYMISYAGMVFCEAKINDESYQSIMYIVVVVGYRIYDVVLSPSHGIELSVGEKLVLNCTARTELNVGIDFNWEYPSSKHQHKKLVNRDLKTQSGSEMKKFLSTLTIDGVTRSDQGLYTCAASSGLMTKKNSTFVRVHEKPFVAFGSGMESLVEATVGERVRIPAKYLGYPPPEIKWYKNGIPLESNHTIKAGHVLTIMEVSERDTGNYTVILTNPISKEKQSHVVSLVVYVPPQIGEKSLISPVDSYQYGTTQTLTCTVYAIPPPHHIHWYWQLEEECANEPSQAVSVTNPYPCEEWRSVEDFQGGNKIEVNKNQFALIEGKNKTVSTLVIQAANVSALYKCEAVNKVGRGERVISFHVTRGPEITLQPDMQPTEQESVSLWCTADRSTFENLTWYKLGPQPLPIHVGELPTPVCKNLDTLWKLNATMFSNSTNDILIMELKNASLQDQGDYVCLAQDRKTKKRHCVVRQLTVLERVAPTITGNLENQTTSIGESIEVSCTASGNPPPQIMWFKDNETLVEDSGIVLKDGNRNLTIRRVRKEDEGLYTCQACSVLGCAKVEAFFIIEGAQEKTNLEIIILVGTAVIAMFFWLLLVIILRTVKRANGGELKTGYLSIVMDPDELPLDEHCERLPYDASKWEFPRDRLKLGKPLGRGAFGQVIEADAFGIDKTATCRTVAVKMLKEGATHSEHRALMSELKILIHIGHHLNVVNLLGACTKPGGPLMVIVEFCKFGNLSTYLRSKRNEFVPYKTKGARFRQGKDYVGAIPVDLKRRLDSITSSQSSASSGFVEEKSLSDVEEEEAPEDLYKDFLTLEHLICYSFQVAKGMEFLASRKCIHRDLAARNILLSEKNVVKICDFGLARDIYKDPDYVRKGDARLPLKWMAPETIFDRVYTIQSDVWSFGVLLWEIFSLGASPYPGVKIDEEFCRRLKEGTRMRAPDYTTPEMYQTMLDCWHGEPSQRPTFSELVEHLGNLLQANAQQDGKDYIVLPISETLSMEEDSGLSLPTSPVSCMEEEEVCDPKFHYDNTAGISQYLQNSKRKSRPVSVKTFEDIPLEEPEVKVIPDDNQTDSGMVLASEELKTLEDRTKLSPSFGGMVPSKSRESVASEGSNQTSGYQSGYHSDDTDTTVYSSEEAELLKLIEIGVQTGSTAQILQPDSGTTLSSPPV

CHRM2 = target: T3, CHRM2 (Homo sapiens, UniProt P08172); assay: Safety47 cAMP CHRM2; assay type: cell-based; settings: for Emax: read-out: Max Response; for EC50: read-out: RC50 (EC50); for IC50: read-out: RC50 (IC50)
T3 construct: purchased Eurofins Panlab Safety47 Safety Scan
T3 sequence (P08172 1-466): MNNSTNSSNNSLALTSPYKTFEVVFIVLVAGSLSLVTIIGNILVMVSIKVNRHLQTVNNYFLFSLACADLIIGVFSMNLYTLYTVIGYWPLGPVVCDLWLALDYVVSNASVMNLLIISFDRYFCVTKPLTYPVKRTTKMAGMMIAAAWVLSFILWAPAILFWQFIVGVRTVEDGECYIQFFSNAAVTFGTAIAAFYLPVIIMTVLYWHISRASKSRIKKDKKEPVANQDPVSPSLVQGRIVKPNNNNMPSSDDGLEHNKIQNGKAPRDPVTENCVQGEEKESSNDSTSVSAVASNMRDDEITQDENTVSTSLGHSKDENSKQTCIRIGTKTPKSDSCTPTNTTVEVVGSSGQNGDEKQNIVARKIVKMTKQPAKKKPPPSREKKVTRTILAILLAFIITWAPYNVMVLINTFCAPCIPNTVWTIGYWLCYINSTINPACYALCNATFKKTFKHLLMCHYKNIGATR

HRH1 = target: T4, HRH1 (Homo sapiens, UniProt P35367); assay: Safety47 Calcium Flux HRH1; assay type: cell-based; settings: for Emax: read-out: Max Response; for EC50: read-out: RC50 (EC50); for IC50: read-out: RC50 (IC50)
T4 construct: purchased Eurofins Panlab Safety47 Safety Scan
T4 sequence (P35367 whole entry): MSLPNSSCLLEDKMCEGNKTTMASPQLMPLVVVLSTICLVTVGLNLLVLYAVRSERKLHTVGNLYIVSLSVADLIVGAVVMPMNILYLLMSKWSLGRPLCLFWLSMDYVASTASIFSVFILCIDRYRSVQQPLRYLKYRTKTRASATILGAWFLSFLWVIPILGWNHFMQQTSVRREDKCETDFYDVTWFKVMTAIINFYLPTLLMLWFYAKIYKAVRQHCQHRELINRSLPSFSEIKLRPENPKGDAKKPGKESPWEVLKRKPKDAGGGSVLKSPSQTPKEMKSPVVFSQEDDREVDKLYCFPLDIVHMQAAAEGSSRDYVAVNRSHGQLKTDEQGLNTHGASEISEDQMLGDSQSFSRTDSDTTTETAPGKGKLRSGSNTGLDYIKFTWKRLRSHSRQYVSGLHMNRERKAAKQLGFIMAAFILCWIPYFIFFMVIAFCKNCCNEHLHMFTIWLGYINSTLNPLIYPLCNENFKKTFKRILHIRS

ADRB2 = target: T5, ADRB2 (Homo sapiens, UniProt P07550); assay: Safety47 cAMP ADRB2; assay type: cell-based; settings: for Emax: read-out: Max Response; for EC50: read-out: RC50 (EC50); for IC50: read-out: RC50 (IC50)
T5 construct: purchased Eurofins Panlab Safety47 Safety Scan
T5 sequence (P07550 whole entry): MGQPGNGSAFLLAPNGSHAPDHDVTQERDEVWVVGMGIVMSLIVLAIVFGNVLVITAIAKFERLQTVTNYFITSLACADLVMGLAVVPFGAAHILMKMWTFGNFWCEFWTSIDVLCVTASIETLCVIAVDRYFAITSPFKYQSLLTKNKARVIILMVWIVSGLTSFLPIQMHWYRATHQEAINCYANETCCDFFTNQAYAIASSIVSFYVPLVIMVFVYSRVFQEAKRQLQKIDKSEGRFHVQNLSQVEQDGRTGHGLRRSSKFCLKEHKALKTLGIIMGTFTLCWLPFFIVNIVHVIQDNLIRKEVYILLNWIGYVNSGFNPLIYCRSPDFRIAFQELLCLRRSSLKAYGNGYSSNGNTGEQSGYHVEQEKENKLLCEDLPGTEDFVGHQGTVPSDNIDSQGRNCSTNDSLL

AVPR1A = target: T6, AVPR1A (Homo sapiens, UniProt P37288); assay: Safety47 Calcium Flux AVPR1A; assay type: cell-based; settings: for Emax: read-out: Max Response; for EC50: read-out: RC50 (EC50); for IC50: read-out: RC50 (IC50)
T6 construct: purchased Eurofins Panlab Safety47 Safety Scan
T6 sequence (P37288 whole entry): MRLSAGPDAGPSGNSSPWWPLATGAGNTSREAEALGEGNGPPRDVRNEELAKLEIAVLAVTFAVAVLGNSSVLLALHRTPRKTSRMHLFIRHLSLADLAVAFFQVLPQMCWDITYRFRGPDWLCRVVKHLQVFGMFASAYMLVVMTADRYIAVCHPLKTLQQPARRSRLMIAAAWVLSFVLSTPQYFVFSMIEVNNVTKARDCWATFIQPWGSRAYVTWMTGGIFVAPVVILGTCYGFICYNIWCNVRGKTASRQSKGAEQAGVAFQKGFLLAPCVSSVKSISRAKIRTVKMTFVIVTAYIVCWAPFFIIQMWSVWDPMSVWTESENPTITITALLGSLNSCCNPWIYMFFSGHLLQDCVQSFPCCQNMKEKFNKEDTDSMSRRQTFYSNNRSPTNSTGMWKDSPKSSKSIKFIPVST

CCKAR = target: T7, CCKAR (Homo sapiens, UniProt P32238); assay: Safety47 Calcium Flux CCKAR; assay type: cell-based; settings: for Emax: read-out: Max Response; for EC50: read-out: RC50 (EC50); for IC50: read-out: RC50 (IC50)
T7 construct: purchased Eurofins Panlab Safety47 Safety Scan
T7 sequence (P32238 1-428): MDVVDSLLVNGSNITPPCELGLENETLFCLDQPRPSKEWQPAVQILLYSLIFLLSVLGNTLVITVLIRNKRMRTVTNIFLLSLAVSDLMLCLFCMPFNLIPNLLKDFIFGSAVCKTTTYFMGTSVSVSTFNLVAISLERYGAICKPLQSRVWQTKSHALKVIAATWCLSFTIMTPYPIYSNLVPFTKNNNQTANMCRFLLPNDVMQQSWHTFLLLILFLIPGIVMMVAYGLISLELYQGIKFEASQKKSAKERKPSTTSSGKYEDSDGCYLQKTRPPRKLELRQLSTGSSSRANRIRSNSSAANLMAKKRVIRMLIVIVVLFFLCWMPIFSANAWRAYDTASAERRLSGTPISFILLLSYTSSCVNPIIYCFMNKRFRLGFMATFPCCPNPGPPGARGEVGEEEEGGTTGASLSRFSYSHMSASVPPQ

CHRM3 = target: T8, CHRM3 (Homo sapiens, UniProt P20309); assay: Safety47 Calcium Flux CHRM3; assay type: cell-based; settings: for Emax: read-out: Max Response; for EC50: read-out: RC50 (EC50); for IC50: read-out: RC50 (IC50)
T8 construct: purchased Eurofins Panlab Safety47 Safety Scan
T8 sequence (P20309 whole entry): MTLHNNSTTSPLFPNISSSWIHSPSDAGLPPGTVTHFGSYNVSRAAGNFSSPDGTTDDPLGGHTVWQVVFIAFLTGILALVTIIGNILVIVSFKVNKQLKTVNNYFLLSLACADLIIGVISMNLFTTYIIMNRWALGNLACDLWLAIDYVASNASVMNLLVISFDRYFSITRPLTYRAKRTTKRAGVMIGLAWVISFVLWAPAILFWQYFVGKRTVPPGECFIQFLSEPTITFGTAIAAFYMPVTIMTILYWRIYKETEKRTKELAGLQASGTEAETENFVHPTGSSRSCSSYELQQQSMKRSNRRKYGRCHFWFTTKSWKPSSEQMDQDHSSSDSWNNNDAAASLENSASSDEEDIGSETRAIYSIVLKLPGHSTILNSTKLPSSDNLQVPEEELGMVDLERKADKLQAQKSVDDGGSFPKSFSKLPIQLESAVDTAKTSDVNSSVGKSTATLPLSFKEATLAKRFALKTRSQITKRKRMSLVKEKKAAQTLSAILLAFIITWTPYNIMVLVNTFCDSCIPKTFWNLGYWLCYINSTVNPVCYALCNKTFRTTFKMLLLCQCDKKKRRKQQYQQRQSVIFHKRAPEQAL

HTR2A = target: T9, HTR2A (Homo sapiens, UniProt P28223); assay: Safety47 Calcium Flux HTR2A; assay type: cell-based; settings: for Emax: read-out: Max Response; for EC50: read-out: RC50 (EC50); for IC50: read-out: RC50 (IC50)
T9 construct: purchased Eurofins Panlab Safety47 Safety Scan
T9 sequence (P28223 whole entry): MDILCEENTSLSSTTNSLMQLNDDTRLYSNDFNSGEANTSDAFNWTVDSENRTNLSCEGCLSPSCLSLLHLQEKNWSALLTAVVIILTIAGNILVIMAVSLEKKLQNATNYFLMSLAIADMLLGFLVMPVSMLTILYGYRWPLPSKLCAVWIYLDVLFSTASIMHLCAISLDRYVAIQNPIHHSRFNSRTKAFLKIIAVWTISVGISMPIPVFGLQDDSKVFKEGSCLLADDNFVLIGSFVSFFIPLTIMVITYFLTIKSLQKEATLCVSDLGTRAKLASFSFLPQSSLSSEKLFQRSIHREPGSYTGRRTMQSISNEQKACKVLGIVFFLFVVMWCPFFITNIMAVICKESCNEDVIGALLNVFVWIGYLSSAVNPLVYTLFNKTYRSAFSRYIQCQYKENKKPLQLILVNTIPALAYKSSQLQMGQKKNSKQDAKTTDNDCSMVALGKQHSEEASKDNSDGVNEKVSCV

DRD1 = target: T10, DRD1 (Homo sapiens, UniProt P21728); assay: Safety47 cAMP DRD1; assay type: cell-based; settings: for Emax: read-out: Max Response; for EC50: read-out: RC50 (EC50); for IC50: read-out: RC50 (IC50)
T10 construct: purchased Eurofins Panlab Safety47 Safety Scan
T10 sequence (P21728 whole entry): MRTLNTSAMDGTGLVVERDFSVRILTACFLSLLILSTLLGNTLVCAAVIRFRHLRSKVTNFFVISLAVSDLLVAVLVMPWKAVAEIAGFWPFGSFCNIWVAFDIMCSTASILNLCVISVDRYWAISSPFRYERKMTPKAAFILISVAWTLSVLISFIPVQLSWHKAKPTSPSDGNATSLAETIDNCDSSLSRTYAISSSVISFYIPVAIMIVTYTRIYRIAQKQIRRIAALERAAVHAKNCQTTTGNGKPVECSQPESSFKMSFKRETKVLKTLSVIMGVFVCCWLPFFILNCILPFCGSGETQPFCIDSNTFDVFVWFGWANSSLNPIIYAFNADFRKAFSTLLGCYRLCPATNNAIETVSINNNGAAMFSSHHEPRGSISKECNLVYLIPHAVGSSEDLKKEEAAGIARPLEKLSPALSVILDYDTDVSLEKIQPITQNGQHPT

AR = target: T11, AR (Homo sapiens, UniProt P10275); assay: Safety47 NHR Nuclear Translocation AR; assay type: cell-based; settings: for Emax: read-out: Max Response; for EC50: read-out: RC50 (EC50); for IC50: read-out: RC50 (IC50)
T11 construct: purchased Eurofins Panlab (Safety47 Safety Scan, contract panel)
T11 sequence (P10275 1-920): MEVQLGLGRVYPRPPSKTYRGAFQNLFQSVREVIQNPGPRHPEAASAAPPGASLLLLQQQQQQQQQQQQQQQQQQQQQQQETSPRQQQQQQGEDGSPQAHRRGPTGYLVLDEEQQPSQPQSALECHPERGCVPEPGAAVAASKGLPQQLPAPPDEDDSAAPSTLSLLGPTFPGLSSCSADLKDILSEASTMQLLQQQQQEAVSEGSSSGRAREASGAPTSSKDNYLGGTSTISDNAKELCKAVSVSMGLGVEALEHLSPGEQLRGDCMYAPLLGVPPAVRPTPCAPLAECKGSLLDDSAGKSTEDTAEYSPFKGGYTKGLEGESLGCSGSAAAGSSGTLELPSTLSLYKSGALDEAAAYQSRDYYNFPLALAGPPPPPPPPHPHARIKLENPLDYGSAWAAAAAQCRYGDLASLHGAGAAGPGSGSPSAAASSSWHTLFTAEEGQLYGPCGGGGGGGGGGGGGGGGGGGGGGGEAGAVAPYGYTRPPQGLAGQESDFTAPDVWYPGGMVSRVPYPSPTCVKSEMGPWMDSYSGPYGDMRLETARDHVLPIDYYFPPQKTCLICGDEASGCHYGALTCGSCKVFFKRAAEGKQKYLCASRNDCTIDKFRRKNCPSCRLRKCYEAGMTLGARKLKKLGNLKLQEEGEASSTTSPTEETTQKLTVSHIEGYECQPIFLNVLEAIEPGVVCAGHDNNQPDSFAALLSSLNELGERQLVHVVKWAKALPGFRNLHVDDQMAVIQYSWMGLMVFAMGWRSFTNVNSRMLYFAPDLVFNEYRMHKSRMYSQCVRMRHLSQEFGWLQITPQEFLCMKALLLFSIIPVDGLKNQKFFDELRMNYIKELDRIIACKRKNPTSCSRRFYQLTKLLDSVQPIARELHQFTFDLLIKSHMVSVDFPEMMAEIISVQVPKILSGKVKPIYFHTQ

T1 sequence (P23975 whole entry): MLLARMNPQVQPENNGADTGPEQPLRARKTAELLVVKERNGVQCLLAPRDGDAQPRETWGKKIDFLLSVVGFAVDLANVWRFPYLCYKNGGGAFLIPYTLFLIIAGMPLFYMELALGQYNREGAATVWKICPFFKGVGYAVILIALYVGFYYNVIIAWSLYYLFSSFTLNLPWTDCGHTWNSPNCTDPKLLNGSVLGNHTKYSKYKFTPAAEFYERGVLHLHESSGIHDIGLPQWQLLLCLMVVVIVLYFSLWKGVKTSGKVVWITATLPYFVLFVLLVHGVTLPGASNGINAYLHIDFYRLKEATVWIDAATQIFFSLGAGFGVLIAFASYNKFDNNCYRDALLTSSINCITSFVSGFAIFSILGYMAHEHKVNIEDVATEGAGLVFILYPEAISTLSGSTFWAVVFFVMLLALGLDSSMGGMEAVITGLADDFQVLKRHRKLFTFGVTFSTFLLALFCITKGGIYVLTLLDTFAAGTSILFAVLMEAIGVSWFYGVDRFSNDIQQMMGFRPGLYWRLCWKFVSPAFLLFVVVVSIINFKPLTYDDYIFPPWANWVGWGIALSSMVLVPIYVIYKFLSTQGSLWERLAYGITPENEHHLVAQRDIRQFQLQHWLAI

`Cl.c1ccc2c(Nc3ccc4[nH]ccc4c3)nc(-c3ccncc3)nc2c1` [BC18630, N-1H-indol-5-yl-2-pyridin-4-ylquinazolin-4-amine hydrochloride] was tested, and the Emax (NET) was 0%, the IC50 (NET) was > 10 µM and the Emax (VEGFR2) was 13.7%. For the same molecule, the IC50 (VEGFR2) was > 10 µM, the Emax (CHRM2; Agonist) was 31.6% and the EC50 (CHRM2; Agonist) was > 10 µM. The Emax (CHRM2; Antagonist) was 0.25%, the IC50 (CHRM2; Antagonist) was > 10 µM and the Emax (HRH1; Agonist) was 0%. The EC50 (HRH1; Agonist) was > 10 µM, the Emax (HRH1; Antagonist) was 0% and the IC50 (HRH1; Antagonist) was > 10 µM. The Emax (ADRB2; Agonist) was 0%, the EC50 (ADRB2; Agonist) was > 10 µM and the Emax (ADRB2; Antagonist) was 37.3%. The IC50 (ADRB2; Antagonist) was > 10 µM, the Emax (AVPR1A; Agonist) was 8.97% and the EC50 (AVPR1A; Agonist) was > 10 µM. The Emax (AVPR1A; Antagonist) was 15.9%, the IC50 (AVPR1A; Antagonist) was > 10 µM and the Emax (CCKAR; Agonist) was 1.69%. The EC50 (CCKAR; Agonist) was > 10 µM, the Emax (CCKAR; Antagonist) was 0% and the IC50 (CCKAR; Antagonist) was > 10 µM. For the same molecule, the Emax (CHRM3; Agonist) was 0%, the EC50 (CHRM3; Agonist) was > 10 µM and the Emax (CHRM3; Antagonist) was 13.7%. For the same molecule, the IC50 (CHRM3; Antagonist) was > 10 µM, the Emax (HTR2A; Agonist) was 4.44% and the EC50 (HTR2A; Agonist) was > 10 µM. The Emax (HTR2A; Antagonist) was 22.5%, the IC50 (HTR2A; Antagonist) was > 10 µM and the Emax (DRD1; Agonist) was 0%. The EC50 (DRD1; Agonist) was > 10 µM, the “Curve Bottom” value (DRD1; Antagonist) was 0 and the “Curve Top” value (DRD1; Antagonist) was 100. The Hill (DRD1; Antagonist) was 1.45, the Emax (DRD1; Antagonist) was 55.1% and the IC50 (DRD1; Antagonist) was 8.45 µM. For the same molecule, the Emax (AR; Agonist) was 0%, the EC50 (AR; Agonist) was > 10 µM and the Emax (AR; Antagonist) was 15.6%. For the same molecule, the IC50 (AR; Antagonist) was > 10 µM.

In the case of `Cl.Fc1cc(Nc2nc(-c3ccncc3)nc3ncccc23)cc2cc[nH]c12` [BC18813, N-(7-fluoro-1H-indol-5-yl)-2-pyridin-4-ylpyrido[2,3-d]pyrimidin-4-amine hydrochloride], the Emax (NET) is reported as 9.94%, the IC50 (NET) is reported as > 10 µM and the Emax (VEGFR2) is reported as 0.27%. The IC50 (VEGFR2) was > 10 µM, the Emax (CHRM2; Agonist) was 47.7% and the EC50 (CHRM2; Agonist) was > 10 µM. For the same molecule, the Emax (CHRM2; Antagonist) was 12.2%, the IC50 (CHRM2; Antagonist) was > 10 µM and the Emax (HRH1; Agonist) was 1.49%. The EC50 (HRH1; Agonist) was > 10 µM, the Emax (HRH1; Antagonist) was 6.52% and the IC50 (HRH1; Antagonist) was > 10 µM. The Emax (ADRB2; Agonist) was 0%, the EC50 (ADRB2; Agonist) was > 10 µM and the Emax (ADRB2; Antagonist) was 41.9%. For the same molecule, the IC50 (ADRB2; Antagonist) was > 10 µM, the Emax (AVPR1A; Agonist) was 1.07% and the EC50 (AVPR1A; Agonist) was > 10 µM. The Emax (AVPR1A; Antagonist) was 16%, the IC50 (AVPR1A; Antagonist) was > 10 µM and the Emax (CCKAR; Agonist) was 2.97%. For the same molecule, the EC50 (CCKAR; Agonist) was > 10 µM, the Emax (CCKAR; Antagonist) was 0% and the IC50 (CCKAR; Antagonist) was > 10 µM. For the same molecule, the Emax (CHRM3; Agonist) was 0.56%, the EC50 (CHRM3; Agonist) was > 10 µM and the Emax (CHRM3; Antagonist) was 16.6%. The IC50 (CHRM3; Antagonist) was > 10 µM, the Emax (HTR2A; Agonist) was 0.95% and the EC50 (HTR2A; Agonist) was > 10 µM. The Emax (HTR2A; Antagonist) was 25.6%, the IC50 (HTR2A; Antagonist) was > 10 µM and the Emax (DRD1; Agonist) was 0%. The EC50 (DRD1; Agonist) was > 10 µM, the “Curve Bottom” value (DRD1; Antagonist) was 0 and the “Curve Top” value (DRD1; Antagonist) was 100. The Hill (DRD1; Antagonist) was 1.19, the Emax (DRD1; Antagonist) was 50.1% and the IC50 (DRD1; Antagonist) was 9.45 µM. For the same molecule, the Emax (AR; Agonist) was 0%, the EC50 (AR; Agonist) was > 10 µM and the IC50 (AR; Antagonist) was > 10 µM.
